Results from publication PMC6106931 (Alzheimer's Research & Therapy, 2018).

Assay: Clinical safety, Study ALZ1005
Format: in vivo, human
[1] = MCI due to AD, JNJ-54861911 total, N=20
[2] = both atabecestat groups, 3 of 31 patients
[3] = preclinical AD, JNJ-54861911 total, N=11

Experimental: Safety and tolerability were assessed during the study by recording adverse events (AEs), clinically significant abnormalities, clinical laboratory tests, ECG, and vital signs and by performing physical, neurological, and MRI examinations. All enrolled participants were included in the safety analysis population.

Structure (SMILES): C[C@@]1(c2cc(NC(=O)c3ccc(C#N)cn3)ccc2F)C=CSC(N)=N1 [atabecestat]
- TEAE: Psoriasis [1]: ^0 n (%)
- TEAE: Psychiatric disorders [1]: ^2 (10.0) n (%)
- TEAE: Renal and urinary disorders [1]: ^1 (5.0) n (%)
- TEAE: Renal colic [1]: ^1 (5.0) n (%)
- TEAE: Reproductive system and breast disorders [1]: ^1 (5.0) n (%)
- TEAE: Skin and subcutaneous tissue disorders [1]: ^2 (10.0) n (%)
- TEAE: Somnolence [1]: ^0 n (%)
- TEAE: Syncope [1]: ^0 n (%)
- TEAE: Urticaria [1]: ^0 n (%)
- TEAE: Vascular disorders [1]: ^0 n (%)
- TEAE: Vulvovaginal candidiasis [1]: ^1 (5.0) n (%)
- TEAE: Vulvovaginal pruritus [1]: ^1 (5.0) n (%)
- TEAE accidental overdose (both atabecestat groups, 2 patients): 6.5%
- TEAE psychiatric disorders [2]: 9.7%
- TEAE skin and subcutaneous tissue disorders [2]: 9.7%
- TEAE post-lumbar puncture syndrome (both atabecestat groups, 4 patients): 12.9%
- TEAE SOC injury, poisoning, and procedural complications (both atabecestat groups, 5 of 31 patients): 16.1%
- changes from baseline in clinical laboratory analytes, liver function tests, vital signs, neurologic and physical examinations (both studies): no clinically significant trends
- deaths or TEAEs leading to discontinuation (both studies): no deaths or TEAEs leading to discontinuation
- ECG parameters, mean and median changes over time from predose (early AD population): no treatment- or dose-related changes
- Subjects with any TEAE (preclinical AD, 10 mg, N=5): ^1 (20.0%) n (%)
- TEAE: Accidental overdose (preclinical AD, 10 mg, N=5): ^0 n (%)
- TEAE: Anxiety (preclinical AD, 10 mg, N=5): ^0 n (%)
- TEAE: Bladder cancer (preclinical AD, 10 mg, N=5): ^0 n (%)
- TEAE: Conjunctivitis (preclinical AD, 10 mg, N=5): ^0 n (%)
- TEAE: Dementia Alzheimer’s type (preclinical AD, 10 mg, N=5): ^0 n (%)
- TEAE: Depressed mood (preclinical AD, 10 mg, N=5): ^0 n (%)
- TEAE: Dermatitis allergic (preclinical AD, 10 mg, N=5): ^0 n (%)
- TEAE: Dizziness (preclinical AD, 10 mg, N=5): ^0 n (%)
- TEAE: Eczema vesicular (preclinical AD, 10 mg, N=5): ^0 n (%)
- TEAE: Fatigue (preclinical AD, 10 mg, N=5): ^0 n (%)
- TEAE: Gastrointestinal disorders (preclinical AD, 10 mg, N=5): ^0 n (%)
- TEAE: General disorders and administration site conditions (preclinical AD, 10 mg, N=5): ^0 n (%)
- TEAE: Headache (preclinical AD, 10 mg, N=5): ^0 n (%)
- TEAE: Hypertension (preclinical AD, 10 mg, N=5): ^1 (20.^0) n (%)
- TEAE: Infections and infestations (preclinical AD, 10 mg, N=5): ^0 n (%)
- TEAE: Injury, poisoning and procedural complications (preclinical AD, 10 mg, N=5): ^0 n (%)
- TEAE: Insomnia (preclinical AD, 10 mg, N=5): ^0 n (%)
- TEAE: Irritability (preclinical AD, 10 mg, N=5): ^0 n (%)
- TEAE: Musculoskeletal and connective tissue disorders (preclinical AD, 10 mg, N=5): ^0 n (%)
- TEAE: Nasopharyngitis (preclinical AD, 10 mg, N=5): ^0 n (%)
- TEAE: Nausea (preclinical AD, 10 mg, N=5): ^0 n (%)
- TEAE: Neck pain (preclinical AD, 10 mg, N=5): ^0 n (%)
- TEAE: Neoplasms benign, malignant and unspecified (preclinical AD, 10 mg, N=5): ^0 n (%)
- TEAE: Nervous system disorders (preclinical AD, 10 mg, N=5): ^0 n (%)
- TEAE: Post lumbar puncture syndrome (preclinical AD, 10 mg, N=5): ^0 n (%)
- TEAE: Psoriasis (preclinical AD, 10 mg, N=5): ^0 n (%)
- TEAE: Psychiatric disorders (preclinical AD, 10 mg, N=5): ^0 n (%)
- TEAE: Renal and urinary disorders (preclinical AD, 10 mg, N=5): ^0 n (%)
- TEAE: Renal colic (preclinical AD, 10 mg, N=5): ^0 n (%)
- TEAE: Reproductive system and breast disorders (preclinical AD, 10 mg, N=5): ^0 n (%)
- TEAE: Skin and subcutaneous tissue disorders (preclinical AD, 10 mg, N=5): ^0 n (%)
- TEAE: Somnolence (preclinical AD, 10 mg, N=5): ^0 n (%)
- TEAE: Syncope (preclinical AD, 10 mg, N=5): ^0 n (%)
- TEAE: Urticaria (preclinical AD, 10 mg, N=5): ^0 n (%)
- TEAE: Vascular disorders (preclinical AD, 10 mg, N=5): ^1 (20.0) n (%)
- TEAE: Vulvovaginal candidiasis (preclinical AD, 10 mg, N=5): ^0 n (%)
- TEAE: Vulvovaginal pruritus (preclinical AD, 10 mg, N=5): ^0 n (%)
- Subjects with any TEAE (preclinical AD, 50 mg, N=6): ^2 (33.3) n (%)
- TEAE: Accidental overdose (preclinical AD, 50 mg, N=6): ^0 n (%)
- TEAE: Anxiety (preclinical AD, 50 mg, N=6): ^0 n (%)
- TEAE: Bladder cancer (preclinical AD, 50 mg, N=6): ^0 n (%)
- TEAE: Conjunctivitis (preclinical AD, 50 mg, N=6): ^0 n (%)
- TEAE: Dementia Alzheimer’s type (preclinical AD, 50 mg, N=6): ^0 n (%)
- TEAE: Depressed mood (preclinical AD, 50 mg, N=6): ^0 n (%)
- TEAE: Dermatitis allergic (preclinical AD, 50 mg, N=6): ^0 n (%)
- TEAE: Dizziness (preclinical AD, 50 mg, N=6): ^0 n (%)
- TEAE: Eczema vesicular (preclinical AD, 50 mg, N=6): ^0 n (%)
- TEAE: Fatigue (preclinical AD, 50 mg, N=6): ^1 (16.7^) n (%)
- TEAE: Gastrointestinal disorders (preclinical AD, 50 mg, N=6): ^0 n (%)
- TEAE: General disorders and administration site conditions (preclinical AD, 50 mg, N=6): ^1 (16.7) n (%)
- TEAE: Headache (preclinical AD, 50 mg, N=6): ^0 n (%)
- TEAE: Hypertension (preclinical AD, 50 mg, N=6): ^0 n (%)
- TEAE: Infections and infestations (preclinical AD, 50 mg, N=6): ^0 n (%)
- TEAE: Injury, poisoning and procedural complications (preclinical AD, 50 mg, N=6): ^1 (16.7) n (%)
- TEAE: Insomnia (preclinical AD, 50 mg, N=6): ^1 (16.^7) n (%)
- TEAE: Irritability (preclinical AD, 50 mg, N=6): ^0 n (%)
- TEAE: Musculoskeletal and connective tissue disorders (preclinical AD, 50 mg, N=6): ^0 n (%)
- TEAE: Nasopharyngitis (preclinical AD, 50 mg, N=6): ^0 n (%)
- TEAE: Nausea (preclinical AD, 50 mg, N=6): ^0 n (%)
- TEAE: Neck pain (preclinical AD, 50 mg, N=6): ^0 n (%)
- TEAE: Neoplasms benign, malignant and unspecified (preclinical AD, 50 mg, N=6): ^0 n (%)
- TEAE: Nervous system disorders (preclinical AD, 50 mg, N=6): ^0 n (%)
- TEAE: Post lumbar puncture syndrome (preclinical AD, 50 mg, N=6): ^1 (16.7^) n (%)
- TEAE: Psoriasis (preclinical AD, 50 mg, N=6): ^1 (16.^7) n (%)
- TEAE: Psychiatric disorders (preclinical AD, 50 mg, N=6): ^1 (16.^7) n (%)
- TEAE: Renal and urinary disorders (preclinical AD, 50 mg, N=6): ^0 n (%)
- TEAE: Renal colic (preclinical AD, 50 mg, N=6): ^0 n (%)
- TEAE: Reproductive system and breast disorders (preclinical AD, 50 mg, N=6): ^0 n (%)
- TEAE: Skin and subcutaneous tissue disorders (preclinical AD, 50 mg, N=6): ^1 (16.^7) n (%)
- TEAE: Somnolence (preclinical AD, 50 mg, N=6): ^0 n (%)
- TEAE: Syncope (preclinical AD, 50 mg, N=6): ^0 n (%)
- TEAE: Urticaria (preclinical AD, 50 mg, N=6): ^1 (16.^7) n (%)
- TEAE: Vascular disorders (preclinical AD, 50 mg, N=6): ^0 n (%)
- TEAE: Vulvovaginal candidiasis (preclinical AD, 50 mg, N=6): ^0 n (%)
- TEAE: Vulvovaginal pruritus (preclinical AD, 50 mg, N=6): ^0 n (%)
- Subjects with any TEAE [3]: ^3 (27.3) n (%)
- TEAE: Fatigue [3]: ^1 (9.1) n (%)
- TEAE: General disorders and administration site conditions [3]: ^1 (9.1) n (%)
- TEAE: Hypertension [3]: ^1 (9.1) n (%)
- TEAE: Injury, poisoning and procedural complications [3]: ^1 (9.1) n (%)
- TEAE: Insomnia [3]: ^1 (9.1) n (%)
- TEAE: Nervous system disorders [3]: ^0 n (%)
- TEAE: Post lumbar puncture syndrome [3]: ^1 (9.1) n (%)
- TEAE: Psoriasis [3]: ^1 (9.1) n (%)
- TEAE: Psychiatric disorders [3]: ^1 (9.1) n (%)
- TEAE: Skin and subcutaneous tissue disorders [3]: ^1 (9.1) n (%)
- TEAE: Somnolence [3]: ^0 n (%)
- TEAE: Urticaria [3]: ^1 (9.1) n (%)
- TEAE: Vascular disorders [3]: ^1 (9.1) n (%)
